Measurements reported in PubChem BioAssay AID179 (DTP/NCI, 2004).
Where “and” joins values, the source holds several entries; their conditions need not be identical. Equal entries are not always repeated. Calls of active or inactive are those of the source.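 How the source made its calls: active means compounds giving half or more protection of infected cells from virus-caused growth loss, again on retest; inactive means the rest.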

System: CEM cells HIV-1 protection, formazan growth assay
Assay: NCI AIDS Antiviral Assay
Settings: for IC50: measured here: growth of uninfected CEM cells
Method in brief: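 Soluble formazan readout of cell growth; CEM cells ± HIV-1; 5 drug concs. ≥50% protection → retest; ≥50% again = moderately active; reproducible 100% = confirmed active.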

Compound | outcome | EC50 [µM] | IC50
COC(=O)C1=C(c2ccc3c(c2)OCO3)OC(c2ccc3c(c2)OCO3)C1 (stereo not given) | inactive | – | –
C(=C(c1ccccc1)c1ccccc1)N1CCOCC1 | – | > 200 | > 200 µM
CCC/C(Cl)=N/OC(=O)Nc1ccccc1C(F)(F)F | – | > 20 | 3.39 µM
CCC12C=CCN(C1)C(=O)Cc1c([nH]c3ccccc13)/C(=N/NC(=O)OC)C2 (stereo not given) | – | > 52.5 | > 52.5 µM
COC(=O)N1CC2C3C4CC(C(c5ccccc5)=C4c4ccccc4)C3C21 (stereo not given) | – | > 200 | 29.5 µM
COc1cc(/C=C/c2ccc(/C=C/c3cc(OC)c(OC)c(OC)c3)cc2)cc(OC)c1OC | inactive | – | –
Cc1nc2c(O)cc(Br)c(O)c2nc1C | inactive | – | –
COC(=O)NC(Cc1ccccc1)NC(C)=O (stereo not given) | – | > 200 | > 200 µM
O=S(=O)(O)c1ccc2c(N=Nc3ccc(S(=O)(=O)O)c4ccccc34)c(O)c(S(=O)(=O)O)cc2c1 | inactive | > 100 | > 100 µM
COC(=O)Cc1c2c3n(c(=O)c1-n1[nH]c(=O)n(-c4ccc(Cl)cc4)c1=O)CCN3CCC2 | – | > 200 | > 200 µM
COC(=O)C1(O)C(c2ccccc2)NC2(C)CCCC21 (stereo not given) | – | > 200 | > 200 µM
CCOC(=O)CC1=Nc2ccccc2SC1 | inactive | – | –
O=NNc1ccc2ccccc2n1 | – | > 200 | > 200 µM
Cn1c2c(c3ccccc31)CCN1OCC=C[C@@H](C(=O)O)[C@@H]21 | – | > 200 | > 200 µM
O=C(CCC1CCCCN1)Nc1ccc2c(c1)C(=O)c1ccc(NC(=O)CCN3CCCCC3)cc1C2=O (stereo not given) | inactive | – | –
CCOP(=O)(Nc1ccccc1P(=O)(OCC)OCC)OCC | – | > 200 | > 200 µM
O=c1/c(=C/c2ccccc2[N+](=O)[O-])sc2nnc(-c3cccnc3)n12 | – | > 186 | > 186 µM
COc1cc2c(cc1OC)CCN=C2 | inactive | – | –
Nc1c(Br)cc(/C=C2\C=Cc3ccccc32)cc1Br | – | > 10 | > 10 µM
CCN(CC)P1(=O)C=C(C)C2C1C1C=C(C)C2P1(=O)N(CC)CC (stereo not given) | inactive | – | –
COC(=O)C1=C(CS(=O)c2ccc([N+](=O)[O-])cc2[N+](=O)[O-])C2C=CC1C2 (stereo not given) | inactive | – | –
COc1ccc2c(c1)C1OCCNC1CC2 (stereo not given) | – | > 200 | > 200 µM

Compound | outcome | EC50 [µM] | IC50
C[n+]1c(/C=C/c2ccc(/C=N/NC(=O)c3ccc(C(=O)N/N=C/c4ccc(/C=C/c5cn6ccccc6[n+]5C)cc4)cc3)cc2)cn2ccccc21 | – | > 3.55 | > 3.55 µM
O=C(CCc1ccccc1)NCCc1ccc(O)c(O)c1 | – | > 200 | 14.8 µM
O=c1[nH][nH]c(=O)c2[nH]cnc12 | inactive | – | –
C=C1c2[nH]c3c([N+](=O)[O-])c(OC)ccc3c2CCN1C(C)=O | inactive | – | –
CCCCCCCCNC(=O)C1=C(C)NC(C)=C(C(=O)NCCCCCCCC)C1 | – | > 200 | 97.7 µM
CC(C)=CCc1c2c(c3occ(-c4ccc(O)c(O)c4)c(=O)c3c1O)C=CC(C)(C)O2 | – | > 200 | 39.8 µM
CCCCCCCCCCCCCCCc1ncc(C)[nH]1 | – | > 24.5 | > 24.5 µM
O=C1OC[C@H](Cc2ccccc2)N1C(=O)[C@H]1NC(=S)OC1Cc1ccc(OCc2ccccc2)cc1 (stereo not given in full) | inactive | – | –
CCOC(=O)/C(C#N)=C/N(CC)/N=C/c1ccccc1 | – | > 200 | > 200 µM
C=CCCCCCCCCC(=O)NCc1ccncc1 | – | > 200 | 97.7 µM
Clc1ccc(NC2=NCCCS2)c2ccccc12 | – | > 200 | 42.7 µM
Cc1cc(O)c(C=NC(=S)C(N)=S)c(=O)o1 | – | > 200 | 41.7 µM
Cc1nc(N)c(N=O)c(=O)[nH]1 | – | > 200 | > 200 µM
CC(C)(C)c1cc(-c2cc(C(C)(C)C)n(-c3ccccc3)n2)nn1-c1ccccc1 | – | > 200 | 89.1 µM
Cc1cc2c(C)nn(Cc3ccc(Cl)cc3)c2c(C#N)c1C | – | > 43.7 | > 43.7 µM
CCOC(=O)Nc1nc2ccccc2[nH]1 | – | > 200 | 11.2 µM
CC(=O)/C=C(/C=N/O)c1ccccc1 | – | > 200 | > 200 µM
CC(=O)NC1C(OC(C)C(=O)NC(C)C(=O)NC(CCC(=O)NCCCNc2ccc([N+](=O)[O-])c3[nH]c4ccccc4c(=O)c23)C(N)=O)C(O)C(CO)OC1(C)OCc1ccccc1 (stereo not given) | – | > 151 | 15.8 µM
CC(=O)OC1C=CS(=O)(=O)C1 (stereo not given) | – | > 200 | 15.8 µM
Cn1c(-c2ccccc2)cc(-c2cccs2)c1-c1ccsc1 | – | > 200 | 182 µM
Cc1ccc(C)n1-c1ccccc1C1SCCCS1 | – | > 200 | 195 µM
CN(C)[C@@H]1C(=O)C(C(N)=O)=C(O)[C@@]2(O)C(=O)C3=C(O)c4c(O)cccc4C[C@H]3C[C@@H]12 | – | > 200 | 3.55 µM

Compound | outcome | EC50 [µM] | IC50
Cc1cccc(N=C2NC(=O)C(CC(=O)Nc3ccc(Cl)cc3C)S2)c1 (stereo not given) | – | > 18.6 | > 18.6 µM
COc1ccc(-c2c(C#N)c(N)n(C3OC(COC(C)=O)C(OC(C)=O)C(OC(C)=O)C3OC(C)=O)c(=S)c2C#N)cc1 (stereo not given) | – | > 200 | 83.2 µM and 115 µM
CN1CCN(Cc2ccccc2)CC1CC#N (stereo not given) | – | 1.95 | > 200 µM
COc1ccc2nc3c4ccccc4scc-3c2c1 | – | > 200 | 0.295 µM
OC1(c2ccccc2)CSC2=Nc3ccccc3C3CCN1N23 (stereo not given) | – | > 200 | 36.3 µM
COc1cc2c(c([N+](=O)[O-])c1)NC(=O)CC(C)S2 (stereo not given) | – | 95.5 | 148 µM
CSc1nc(NC2OCC(O)C(O)C2O)cc(=O)[nH]1 (stereo not given) | inactive | – | –
CN=C(NC#N)NCCSCc1nc[nH]c1C | – | > 389 | > 389 µM
COc1ccc([C@@H]2ON(C)[C@H]3CN(C)C(=O)[C@@H]23)cc1 | – | > 200 | > 200 µM
CNS(=O)(=O)NNS(=O)(=O)c1ccc(C)cc1 | – | > 468 | 145 µM
CSc1nc(C)cc(Nc2ccc(O)c(CN3CCOCC3)c2)n1 | – | > 24 | > 24 µM
CC(C)CCCC(C)[C@H]1CCC2C3C[C@@H](CCC=C(c4cc(Cl)c(O)c(C(=O)O)c4)c4cc(Cl)c(O)c(C(=O)O)c4)[C@H]4CCCC[C@]4(C)C3CC[C@@]21C (stereo not given in full) | – | 20 | > 100 µM
N#Cc1c(N2CCC(O)C2)c2ccccc2n2c1nc1ccccc12 (stereo not given) | – | > 50.1 | > 50.1 µM
CCC(=O)C(C(C)/C=C/CCSc1ccccc1)C(O)CCCCCC(=O)OC (stereo not given) | – | > 200 | 36.3 µM
C=CCOC1=C(OCC=C)C(C2COC(C)(C)O2)OC1=O (stereo not given) | – | > 200 | 70.8 µM
CC12NC(=C(C#N)C#N)C(C#N)=C3NC(N)=C(C#N)C(=C31)Oc1ccccc12 (stereo not given) | – | > 200 | 5.89 µM
CCOC(=O)c1sc2c(C(=O)OCC)c3cc(C)ccn3c2c1N | inactive | – | –
CCCCCCCCCCCC(=O)OC[C@H](C[As](=O)(O)O)OC(=O)CCCCCCCCCCC | – | > 200 | 4.17 µM
COc1ccc(OC)c(CCc2cc(OC)c(OC)cc2C)c1 | – | > 58.9 | 2.82 µM
CN(C)N1C(=O)c2c(Cl)c(Cl)c(Cl)c(Cl)c2C1=O | – | > 200 | 91.2 µM
O=C(O)[C@@H]1CCCC[C@@H]1C(=O)N(C1CCCCC1)C1CCCCC1 | – | > 77.6 | > 77.6 µM
Ic1ccc(SSc2ccc(I)cc2)cc1 | – | > 200 | 6.61 µM

Compound | outcome | EC50 [µM] | IC50
CCOC(=O)NC(Nc1ccc(S(=O)(=O)Nc2ncccn2)cc1)(C(=O)OCC)C(F)(F)F (stereo not given) | – | > 200 | > 200 µM
CC1(C)O[C@@H](CP(c2ccc3ccccc3c2)c2ccc3ccccc3c2)[C@H](CP(c2ccc3ccccc3c2)c2ccc3ccccc3c2)O1 | – | > 200 | 129 µM
CC1=C(C(=O)Nc2ccccc2C)C(c2ccco2)C(C(=O)Nc2ccccc2C)=C(C)N1C | – | > 21.9 | > 21.9 µM
C=C1[C@H]2O[C@H]2[C@@H](OC(C)=O)[C@@]2(C)[C@@H](OC(C)=O)C[C@@H](OC(=O)CCC)[C@@](C)(O)[C@@H]2[C@@H](OC(C)=O)[C@]2(O)[C@@H](C)C(=O)O[C@H]2[C@H]1Cl | – | > 200 | 174 µM
COc1ccc(C(C2=C(O)COC2=O)c2cc3c(cc2O)OCO3)cc1OC (stereo not given) | – | > 200 | 132 µM
Cc1ccc(S(=O)(=O)N2CCSCCN(S(=O)(=O)c3ccc(C)cc3)CCN(S(=O)(=O)c3ccc(C)cc3)CC2)cc1 | – | > 4.17 | > 4.17 µM
[Cl][Cu][Cl] | – | > 200 | 182 µM
COc1c(C)c2c(c(=O)c3c(C)cccc3n2C)c2c1c(=O)c1c(C)cccc1n2C | – | > 200 | 155 µM
CC(=O)OC1CN2CCC1CC2 (stereo not given) | – | > 200 | > 200 µM
CN(C)c1ccc(/C=C(\C#N)c2ccc([N+](=O)[O-])cc2)c(Cl)c1 | – | > 100 | 75.9 µM
COC(=O)c1cc2c(cc1CC(Cc1ccc3c(c1)CCCC3)C(=O)OC)CCCC2 (stereo not given) | – | > 200 | 57.5 µM
Cc1ccc2c(c1)C(c1ccccc1)C1COC(=O)C1O2 (stereo not given) | – | > 93.3 | 5.25 µM
O=C1CC(c2ccc(Cl)cc2)=Nc2ccccc2N1 | – | 6.31 | 95.5 µM
CCN(CC)CCN1C(=O)CN=C(c2ccccn2)c2cc(Cl)ccc21 | – | > 447 | 240 µM
O=c1[nH]cc(CCl)c(=O)[nH]1 | – | > 200 | > 200 µM
COc1cc2c(cc1OC)C(C1c3cc(OC)c(OC)cc3-c3c(OC)c(OC)cc4c3C1N(C)CC4)C1c3c(cc(OC)c(OC)c3-2)CCN1C (stereo not given) | inactive | – | –
CCCSP(SCCC)SCCC | inactive | – | –
COc1ccc(N2C(=O)c3c(c4[nH]c5ccc(OC)cc5c4c4ccc(C(C)(C)C)cc34)C2=O)cc1 | – | > 11 | > 11 µM
Cc1ccc(O)c(OC2OC(C(=O)O)C(O)C(O)C2O)c1 (stereo not given) | – | > 832 | > 832 µM
COc1ccc2c(c1)CCC1=C2CCC(=O)C1C (stereo not given) (tested in a mixture with another compound) | – | > 200 | 7.94 µM
Cc1ccc(-c2c3c(n(C4OC(CO)C(O)C(O)C4O)c(=S)c2C#N)CC(C)(C)CC3=O)cc1 (stereo not given) | – | > 200 | 97.7 µM
